Assay results: US20200262869A1, “PEPTIDE ANTIBIOTIC COMPLEXES AND METHODS OF USE THEREOF” (GENENTECH, INC., priority 2017, published 2020)
≈ marks a conversion by molar mass, not a printed value. Read-outs that look alike come from different tables or passages of the source.

Legend:
[1] = system: E. coli ATCC 25922; assay: Frequency of resistance (FOR); format: cell-based; settings: G0775 at 8-fold the MIC; limit of detection 10^−10
Procedure: (§1) 20 independent colonies from each bacterial species were scraped and used to establish an overnight culture. Bacteria were concentrated by centrifugation, and approximately 3×10^9 CFUs were spread on cation adjusted Mueller Hinton agarose (MHA) plates containing G0775 at 2- to 8-times the MIC. The MHA plates were prepared from Mueller Hinton II cation adjusted broth (BBL™ 212322) and SeaKem LE Agarose (17 g/L; Lonza) as per manufactures instructions. Resistance frequency for each strain was calculated by dividing the number of colonies formed after a 48 hour incubation at 37° C. by the initial viable cell count.

[2] = system: K. pneumoniae strain ATCC 43816; assay: Mucin peritonitis survival study in mice; format: in vivo; settings: 5 mg/kg BID subcutaneously on day of infection; out to 84 hours
Procedure: CD1 mice (Charles River Laboratories) were infected through intraperitoneal injection of 0.4 mL K. pneumoniae (ATCC 43816) at 3×10^5 CFU/mouse in 5% mucin (Sigma M1778). At 2 and 11 hours post infection, G0775 was given at the indicated dose subcutaneously. Ciprofloxacin (Claris Lifesciences Inc.) was dosed at 80 mg/kg subcutaneously once at 2 hour post infection. Mice were monitored for body conditioning and survival until 84 hours post infection.

[3] = system: E. coli ATCC 25922 point mutants; assay: MIC against spontaneous G0775-resistant point mutants; format: cell-based
Procedure: (§2) Minimum Inhibitory Concentration (MIC). MICs were determined by performing two-fold serial dilutions of compound in Mueller Hinton II cation-adjusted broth to a final volume of 0.1 m1 in round-bottom 96-well assay plates (Corning Life Sciences No 3788). Each well was inoculated with 5×10^5 CFU/ml and incubated at 37° C. without agitation for 18 hours. Plates were scored by eye, and the lowest compound concentration preventing visible growth was determined to be the MIC.
as §1

[4] = system: MDR K. pneumoniae CDC 0106; assay: MIC against MDR clinical isolate; format: cell-based; settings: Klebsiella pneumoniae; MDR K. pneumoniae CDC 0106; read-out: MIC
Procedure: as §2

[5] = system: E. coli K-12 MG1655 and isogenic matched strains; assay: MIC against E. coli K-12 MG1655 and isogenic matched strains; format: cell-based; settings: for MIC: Escherichia coli
Procedure: as §2

[6] = system: E. coli ATCC 25922; assay: Time-kill; format: cell-based; settings: E. coli ATCC 25922, across a 24 hour period
From the text: FIG. 5. […] Colony forming units (CFU) per mL data shown is an average of at least three independent experiments with error bars representing the SD.

Cc1nc(-c2ccc(C(C)(C)C)cc2)ncc1C(=O)NC(CCN)C(=O)N(C)C1C(=O)NC(C)C(=O)NC(C(=O)NCC#N)Cc2ccc(OCCN)c(c2)-c2cc1ccc2OCCN (centres unmarked) [G0775]
frequency of resistance (FOR) [1]: below the limit of detection | survival (animal viability) [2]: full animal viability | Fold MIC Increase ([3]; LepB mutation A297V): 4 Fold | Fold MIC Increase ([3]; LepB mutation D143Y): 8 Fold | Fold MIC Increase ([3]; LepB mutation E83K): 16 Fold | Fold MIC Increase ([3]; LepB mutation F85S): 8 Fold | Fold MIC Increase ([3]; LepB mutation L142R): 8 Fold | Fold MIC Increase ([3]; LepB mutation P88L): 16 Fold | Fold MIC Increase ([3]; LepB mutation P88Q): 4 Fold | Fold MIC Increase ([3]; LepB mutation P88R): 16 Fold | Fold MIC Increase ([3]; LepB mutation P88T): 4 Fold | Fold MIC Increase ([3]; LepB mutation V133F): 16 Fold | Fold MIC Increase ([3]; LepB mutation V149(VVGLP)): 128 Fold | Fold MIC Increase ([3]; mutation AcrB (N282Y), off-target): 4 Fold | reduction of susceptibility to G0775 by resistance mutations ([3]; resistant E. coli mutants): 4- to 16 fold | MIC [4]: 0.5 µg/mL (≈ 0.562 µM) | MIC ([5]; MG1655, read-out: G0775 MIC, MG 1655 - LepB High, increase LepB expression level): 1 µg/mL (≈ 1.12 µM) | MIC ([5]; MG1655, read-out: G0775 MIC, MG 1655 - LepB Low, reduced LepB expression level): 0.008 µg/mL (≈ 0.00899 µM) | MIC ([5]; MG1655, read-out: G0775 MIC, MG 1655 LptD4213 (imp), outer-membrane permeable): 0.004 µg/mL (≈ 0.00449 µM) | MIC ([5]; MG1655, read-out: G0775 MIC, MG1655 WT): 0.125 µg/mL (≈ 0.14 µM) | MIC ([5]; MG1655, read-out: G0775 MIC, MG1655 WT + 4 mM EDTA, outer-membrane permeable): 0.004 µg/mL | MIC ([5]; MG1655, read-out: G0775 MIC, MG1655 WT + 1% surfactant, lung inactivation): 0.125 µg/mL | MIC ([5]; MG1655, read-out: G0775 MIC, MG1655 WT + 50% serum, plasma protein binding): 0.125 µg/mL | MIC ([5]; MG1655, read-out: G0775 MIC, MG 1655 ΔacrB, efflux null): 0.125 µg/mL (≈ 0.14 µM) | MIC ([5]; MG1655, read-out: G0775 MIC, MG 1655 ΔompC, ΔompF, doubly porin deficient): 0.125 µg/mL (≈ 0.14 µM) | MIC ([5]; MG1655, read-out: G0775 MIC, MG 1655 ΔompC, porin deficient): 0.125 µg/mL (≈ 0.14 µM) | MIC ([5]; MG1655, read-out: G0775 MIC, MG 1655 ΔompF, porin deficient): 0.125 µg/mL (≈ 0.14 µM) | MIC ([5]; MG1655, read-out: G0775 MIC, MG 1655 ΔtolC, efflux null): 0.125 µg/mL (≈ 0.14 µM) | increase in potency relative to wild type E. coli ([5]; hyper-permeable E. coli strain (imp4213)): 30 fold | increase in MIC values ([5]; over-expression of LepB in E. coli K12 MG1655): 8 fold | decrease in MIC values ([5]; under-expression of LepB in E. coli K12 MG1655): 16 fold | reduction of the number of viable bacteria (time-dependent killing) [6]: over 6 orders of magnitude
